16 molecules from patent US20240400579A1, “SPIROCYCLIC MODULATORS OF CHOLESTEROL BIOSYNTHESIS AND THEIR USE FOR PROMOTING REMYELINATION” (GENENTECH, INC., priority 2021, published 2024) can be followed below.

Read-outs that look alike come from different tables or passages of the source.

What is called EC50 is the concentration that produces a half-maximal response. By Ki is commonly meant the equilibrium dissociation constant of an inhibitor or competing ligand from its target. A high value points to weaker binding.

Assay [1] deals with EpiSC-derived OPCs. Kind of assay: In vitro phenotypic screening of OPCs, MBP high-content imaging. Format: cell-based, mouse. The conditions noted are these: percentage of MBP+ oligodendrocytes, 3 days, 0.5 nM to 1000 nM, read-out: mOPC EC50. Here is the method:
(§1) To assess effects of treatments on OPCs, all treatments were assayed in two or more independent platings of epiblast stem cell-derived OPCs (EpiSC). EpiSC-derived OPCs were obtained using in vitro differentiation protocols and culture conditions described previously (Najm et al, 2011, Nature Methods). OPCs were expanded and frozen down in aliquots. OPCs were thawed into growth conditions for at least one passage before use in further assays.
EpiSC-derived OPCs were grown and expanded in poly-L-ornithine (PO) and laminin-coated flasks in N2B27 media (DMEM/F12 (Gibco), N2-MAX (R&D Systems), B-27 (ThermoFisher), and GlutaMax (Gibco)) supplemented with FGF2 ([…], R&D systems, 233-FB-025) and PDGF-AA ([…], R&D systems, 233-AA-050) before harvesting for experiments. The cells were seeded onto poly-L-ornithine or poly-D-lysine coated CellCarrier Ultra plates (PerkinElmer) coated with laminin (Sigma, L2020) at a density of 150,000/cm^2 in N2B27 media without growth factors. For dose-response testing, a 1000× compound stock in dimethyl sulphoxide (DMSO) was added to assay plates, resulting in 8-point dose curves with final concentrations between 1000 nM and 0.5 nM. Positive controls and DMSO vehicle controls were included in each assay plate. Cells were incubated under standard conditions (37° C., 5% CO2) for 3 days and fixed with 4% paraformaldehyde (PFA) in phosphate buffered saline (PBS) for 20 min. Fixed plates were washed with PBS, permeabilized with 0.1% Triton X-100, and blocked with 10% donkey serum (v/v) in PBS for 40 min. Then, cells were labelled with MBP antibodies (Abcam, ab7349; 1:200) for 2 h at room temperature, washed with PBS, and stained with Alexa Fluor conjugated secondary antibodies (1:500) for 45 min. Nuclei were visualized by DAPI staining (Sigma; 1 μg/ml), followed by further PBS washes.
Cells and cell culture plates were imaged on the Operetta High Content Imaging and Analysis system (PerkinElmer). Analysis (PerkinElmer Harmony and Columbus software) began by identifying intact nuclei stained by DAPI. The peri-nuclear region of each cell was then cross-referenced with the mature myelin protein (MBP) stain to identify oligodendrocyte nuclei, and from this the percentage of oligodendrocytes was calculated. EC50 values were calculated using The Levenberg-Marquardt algorithm to fit a Hill equation to dose-response data (0.5 nM to 1000 nM).

Assay [2] relates to zymostenol accumulation in EpiSC-derived OPCs (EBP). Kind of assay: GC/MS-based sterol profiling, zymostenol accumulation. The class given is cell-based, mouse. The conditions noted are these: 8 doses from 0.15 nM to 333 nM, read-out: mZymo GCMS EC50. Here is the method:
as §1
Sterols were monitored using a modified Folch wash protocol (Hubler et al, 2018, Nature). EpiSC-derived OPCs were plated at 100,000 cells per well in PO— and laminin-coated 96-well plates in N2B27 media without growth factors. After 24 hours, cells were rinsed with saline and plates were frozen. Cholesterol-d7 standard was then added to each well before drying under nitrogen stream and derivatization with 55 μl of bis(trimethylsilyl) trifluoroacetamide. After derivatization, 2 μl were analyzed by gas chromatography/mass spectrometry using an Agilent 5973 Network Mass Selective Detector equipped with a 6890 gas chromatograph system and a HP-5MS capillary column (30 m x 0.25 mm×[…]). Samples were analyzed in full scan mode using electron impact ionization; ion fragment peaks were integrated to calculate sterol abundance, and quantitation was relative to cholesterol-d7. The following ion fragments were used to quantitate each metabolite: cholesterol-d7 (465), FF-Mas (482), cholesterol (368), zymostenol (458), zymosterol (456), Desmosterol (456, 343), 7-dehydrocholesterol (456, 325), lanosterol (393), lathosterol (458), 14-dehydrozymostenol (456, 351). […] All standards were obtained from Avanti Polar Lipids unless otherwise indicated. Calibration curves were generated by injecting varying concentrations of sterol standards and maintaining a fixed amount of cholesterol-D7. For normalized zymostenol accumulation results, the total amount of zymostenol measured after drug treatment was divided by the total amount of zymostenol accumulated after 24 hr treatment with 100 nM positive control reference.

For assay [3], the target named is human emopamil binding protein and human 7-dehydrocholesterol reductase co-expressing cell membrane (Homo sapiens (Human), UniProt Q15125). Kind of assay: hEBP-DHCR7 radioligand filtration binding assay with [3H]-Compound 118A*. The conditions noted are these: radioligand [3H]-Compound 118A*; HEK293 membrane co-expressing hEBP and DHCR7. Here is the method:
Membrane Preparation: human emopamil binding protein and human 7-dehydrocholesterol reductase co-expressing cells were generated by transient transfecting host human embryonic kidney (HEK) 293 cells with 2 DNA constructs containing each protein's coding sequence. Cells were suspension cultured at 37° C. with 5% CO2 in […] 293 Expression Medium (Thermofisher). Whole cell membrane was prepared by harvesting the cell pellet, adding cold membrane buffer (50 mM Tris, pH7.5, 1× Roche COMPLETE EDTA-free protease inhibitor cocktail) 10 times volume of the cell pellets weight, lysing cell pellet on ice by using Dounce homogenizer, spinning at 200 g 4° C. for 15 min, collecting supernatant and spinning again at 25000 g 4° C. for 50 min, transferring pellet to Dounce homogenizer, re-suspending pellet by homogenizing in membrane buffer on ice to reach ˜25 mg/mL, then keeping whole cell membrane aliquots at −80° C.
Compounds were prepared in a 96-well U bottom plate using an Echo550 machine and 10 mM compound DMSO stock solution, followed by an 8-dose 5-fold serial dilutions protocol with final testing compound concentration ranging from 0.06 to 5000 nM, with DMSO back fill to 100 nL/well and n=2. […] The UniFilter-96 GF/B plates were pre-treated by adding 50 μl/well of 0.3% (v/v) PEI to UniFilter-96 GF/B plates. The plates were sealed and incubated at 4° C. for 3 hrs. Then, the plates were washed with ice-cold assay buffer 3 times. The radioligand binding assay was prepared by adding assay buffer diluted hEBP-DHCR7 membrane at 66.7 μg/ml x 150 μl/well into the 96-well compound plate to reach 10 μg membrane per well. Then, the assay buffer diluted [3H]-Compound 118A* was added at 25 nM×50 μl/well. Following this, the plate was centrifuged at 1000 rpm for 30 secs. The plate was then sealed and agitated at 600 rpm at 22° C. for 5 min, and then incubated at 22° C. for 3 hrs. The incubation was stopped by transferring the binding solution to the pre-treated UniFilter-96 GF/B plate, vacuum filtrated, and then washed four times with ice-cold assay buffer. Following this, the plates were dried at 37° C. for 45 min. The plates were then sealed at the bottom. 40 μl/well of scintillation cocktail was added to the plates. A MicroBeta2 microplate counter was then used to read the plate and analyze the data. For reference and test compounds, the results are expressed as % Inhibition, using the normalization equation: N=100-100×(U−C2)/(C1−C2), where U is the unknown value, C1 is the average of high controls, and C2 is the average value of low controls. The IC50 was determined by fitting percentage of inhibition as a function of compound concentrations with Hill equation using XLfit. Results are expressed as hEBP-DHCR7 Ki (uM) in Table 4. Ki was calculated as described above.

Sequence of human emopamil binding protein and human 7-dehydrocholesterol reductase co-expressing cell membrane (Q15125 whole entry): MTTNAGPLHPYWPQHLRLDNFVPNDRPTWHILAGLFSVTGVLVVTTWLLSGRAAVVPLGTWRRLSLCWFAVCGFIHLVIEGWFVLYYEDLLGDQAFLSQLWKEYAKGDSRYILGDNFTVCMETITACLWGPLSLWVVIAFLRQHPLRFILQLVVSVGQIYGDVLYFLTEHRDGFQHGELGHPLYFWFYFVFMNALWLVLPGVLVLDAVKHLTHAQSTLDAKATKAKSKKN

As to `C[C@@H](Cc1ccc(OC(F)(F)F)cc1)CN1CCC2(C1)CS(=O)(=O)C2` (single isomer, unassigned) [119A*], the EC50 in assay [1] (Mus musculus, 72 h) came to 0.72 nM; in assay [2] (Mus musculus, 24 h), 0.52 nM. Also, the affinity in assay [3] corresponds to a Ki of 7.27 nM.
For `C[C@H](CN1CCC2(CC1)CS(=O)(=O)C2)Oc1ccc(F)c(F)c1` (single isomer, unassigned) [221B*], the EC50 in assay [1] came out at 13 nM; in assay [2] (24 hours), 4.6 nM. Besides, in assay [3], the Ki stood at 10.6 nM.
Take `O=S1(=O)CC2(CCN(CCOc3ccc([C@H]4CC[C@H](C(F)(F)F)CC4)nc3)CC2)C1` [247A*, 7-(2-((6-((trans)-4-(Trifluoromethyl)cyclohexyl)pyridin-3-yl)oxy)ethyl)-2-thia-7-azaspiro[3.5]nonane 2,2-dioxide]: the EC50 in assay [1] (Mus musculus, 72 h) worked out at 22.8 nM; in assay [2] (Mus musculus, 24 h) it was 3.16 nM. This molecule also gave a Ki in assay [3] of 5.72 nM.
For `CCC(C)(C)c1ccc(CC(C)CN2CCC3(CC2)CS(=O)(=O)C3)cc1` (racemic) [Compound 110, 7-(2-Methyl-3-(4-(tert-pentyl)phenyl)propyl)-2-thia-7-azaspiro[3.5]nonane 2,2-dioxide], the EC50 in assay [1] (Mus musculus, 72 h) came to 30 nM; in assay [2] (Mus musculus, 24 h), 22 nM. Also, in assay [3], the Ki worked out at 8.44 nM.
Regarding `CC(C)(Cc1ccc(C(F)(F)F)cn1)CN1CCC2(C1)CS(=O)(=O)C2` [Example 150, 6-(2,2-Dimethyl-3-(5-(trifluoromethyl)pyridin-2-yl)propyl)-2-thia-6-azaspiro[3.4]octane-2,2-dioxide], the EC50 in assay [1] (Mus musculus, 72 h) worked out at 25 nM; in assay [2] (Mus musculus, 24 h) it was 4.9 nM. The same molecule returned a Ki in assay [3] of 29.9 nM.
On to `CC(Cc1ccc(C2CC2(C)C)cc1)CN1CCC2(C1)CS(=O)(=O)C2` (racemic) [Compound 102], for which the EC50 came to 20 nM in assay [1] (Mus musculus, 72 h) and 2.5 nM in assay [2] (Mus musculus, 24 h). The molecule further registered a Ki in assay [3] of 8.31 nM.
Take `O=S1(=O)CC2(CCN(CCOc3ccnc(C(F)(F)F)c3)CC2)C1` [Compound 236, 7-(2-((2-(Trifluoromethyl)pyridin-4-yl)oxy)ethyl)-2-thia-7-azaspiro[3.5]nonane 2,2-dioxide]: the EC50 in assay [1] (Mus musculus, 72 h) is 3.89 nM; in assay [2] (Mus musculus, 24 h), 2.64 nM. Moreover, the Ki in assay [3] was 17 nM.
As for `CC(C)(CN1CCC2(CC1)CS(=O)(=O)C2)Oc1ccc(C(F)(F)F)c(F)c1` [Example 208, 7-(2-(3-Fluoro-4-(trifluoromethyl)phenoxy)-2-methylpropyl)-2-thia-7-azaspiro[3.5]nonane 2,2-dioxide], the EC50 was 1.52 nM in assay [1] (Mus musculus, 72 h) and 0.69 nM in assay [2] (Mus musculus, 24 h). In assay [3], this molecule registered a Ki of 12.8 nM.
For the molecule `O=S1(=O)CC2(CCN(CCOc3cncc(F)c3)CC2)C1` [Example 210, 7-(2-((5-Fluoropyridin-3-yl)oxy)ethyl)-2-thia-7-azaspiro[3.5]nonane 2,2-dioxide], the EC50 in assay [1] (Mus musculus, 72 h) stood at 282 nM; in assay [2] (Mus musculus, 24 h), 52 nM. Also, in assay [3], the affinity corresponds to a Ki of 504 nM.
With `O=S1(=O)CC2(CCN(CCOc3cnc([C@H]4CCC[C@H](C(F)(F)F)C4)nc3)CC2)C1` (relative stereo) [Compound 248A, 7-(2-((2-((trans)-3-(Trifluoromethyl)cyclohexyl)pyrimidin-5-yl)oxy)ethyl)-2-thia-7-azaspiro[3.5]nonane 2,2-dioxide], the EC50 was determined as 94.8 nM in assay [1] (Mus musculus, 72 h) and 24.4 nM in assay [2] (Mus musculus, 24 h). In assay [3], this molecule yielded a Ki of 14.9 nM.
Turning to `O=S1(=O)CC2(CCN(CCOc3ccc(F)cn3)CC2)C1` [Compound 229, 7-(2-((5-Fluoropyridin-2-yl)oxy)ethyl)-2-thia-7-azaspiro[3.5]nonane 2,2-dioxide], the EC50 in assay [1] (Mus musculus, 72 h) turned out to be 135 nM; in assay [2] (Mus musculus, 24 h), 34 nM. Moreover, the affinity in assay [3], expressed as Ki, was 110 nM.
As to `C[C@H](CN1CCC2(C1)CS(=O)(=O)C2)Oc1ccc(C(F)(F)F)cc1` (single isomer, unassigned) [115A*], the EC50 in assay [1] (Mus musculus, 72 h) was 42 nM; in assay [2] (Mus musculus, 24 h), 8.6 nM. This molecule also yielded a Ki in assay [3] of 18.9 nM.
Take `CC(C)(CN1CCC2(CC1)CS(=O)(=O)C2)Oc1ccc(Cl)c(F)c1` [Compound 231, 7-(2-(4-Chloro-3-fluorophenoxy)-2-methylpropyl)-2-thia-7-azaspiro[3.5]nonane 2,2-dioxide]: the EC50 was 0.9 nM in assay [1] (Mus musculus, 72 h) and 0.32 nM in assay [2] (Mus musculus, 24 h). The Ki in assay [3] was 7.31 nM.
For `CC(C)n1nc(C(F)(F)F)cc1OCCN1CCC2(CC1)CS(=O)(=O)C2` [Compound 239], the EC50 in assay [1] (Mus musculus, 72 h) was 374 nM; in assay [2] (Mus musculus, 24 h), 39.8 nM. Also, in assay [3], the Ki worked out at 41.9 nM.
In the case of `CC(C)(Cc1cncc(C(F)(F)F)c1)CN1CCC2(C1)CS(=O)(=O)C2` [Example 149, 6-(2,2-Dimethyl-3-(5-(trifluoromethyl)pyridin-3-yl)propyl)-2-thia-6-azaspiro[3.4]octane-2,2-dioxide], the EC50 was determined as 6.3 nM in assay [1] (Mus musculus, 72 h) and 1.6 nM in assay [2] (Mus musculus, 24 h). In assay [3], this molecule gave a Ki of 24.6 nM.
As to `O=S1(=O)CC2(CCN(CCOc3cnc([C@H]4CCC[C@@H](C(F)(F)F)C4)nc3)CC2)C1` (relative stereo) [Compound 248B, 7-(2-((2-((cis)-3-(trifluoromethyl)cyclohexyl)pyrimidin-5-yl)oxy)ethyl)-2-thia-7-azaspiro[3.5]nonane 2,2-dioxide], the EC50 in assay [1] (Mus musculus, 72 h) came out at 74.1 nM; in assay [2] (Mus musculus, 24 h), 25.6 nM. The molecule also had a Ki in assay [3] of 31.6 nM.
